{
  "source": "patent US20100286069A1",
  "about": "“CATIONIC PEPTIDE FOR DELIVERING AN AGENT INTO A CELL” (priority 2007, published 2010)",
  "key": {"[1]": {"assay": "Critical micelle concentration (CMC) measurement with pyrene", "type": "physicochemical", "conditions": "PBS (pH 7.4)", "method": "Critical micelle concentration (CMC) measurement: The CMC of the peptide amphiphile was measured using pyrene as the probe fluorescence molecule. A series of peptide solutions was prepared at various concentrations (0.01 to 2000 mg/L) in PBS. When excited at 337 nm wavelength, the electrons in the pyrene molecules absorb energy, and in turn, emit photons at wavelengths between 350-450 nm, as indicated by five emission peaks in the pyrene fluorescence spectrum (30). At the concentration of amphiphile above its CMC, when the amphiphile forms core/shell structured nanoparticles having a hydrophobic core and a hydrophilic shell, the pyrene molecules aggregate and are solubilized into the core giving […] intensity of the third peak in the emission spectrum. Therefore, monitoring the intensity of the third peak of pyrene's emission spectra, usually normalized to the first peak's intensity, provides a means to estimate the transition concentration (i.e. CMC) of the amphiphile aggregation.\nThe inflection point gives an estimate of CMC of AK27 in PBS (pH 7.4), which was approximately 120 mg/L."}, "pDNA": {"test_system": "pDNA", "assay": "Gel retardation assay (Example 2)", "type": "binding", "conditions": "PBS; N/P 1 to 10", "method": "Complex formation of peptide amphiphiles with DNA: Complexes were formed at different N/P ratios by directly mixing equal volume of peptide and plasmid DNA (pDNA) solutions to achieve the intended N/P ratio, which measured the relative molar content of nitrogen atoms (N) in each peptide molecule to that of the phosphate groups (P) in each pDNA molecule, and was calculated based on the standardized 3 μgDNA/nmole DNA rule of thumb as described previously (31). To allow for complete electrostatic interaction between peptide and pDNA molecules, the solution was equilibrated at room temperature for 30 minutes upon mixing before being used for further studies.\nGel retardation assay: Various formulations of AK27/pDNA and AK32/pDNA complexes, ranging from N/P ratios of 1 to 10, were prepared in PBS. Post-equilibration, the complexes were electrophoresed on 1% agarose gel (stained with 4 μL of 0.5 μg/ml ethidium bromide per 50 mL of gel) in 0.5×TBE buffer at 80 V for 60 minutes. The gel was then analysed on a UV illuminator (Chemi Genius, Evolve, Singapore) to show the position of the complexed pDNA relative to that of the non-complexed form.\nDNA binding: Gel retardation assays of the two peptide-based amphiphiles were performed to qualitatively study the electrostatic interaction between the peptide and pDNA."}, "[2]": {"assay": "Zeta potential measurement (Example 2)", "type": "physicochemical", "conditions": "N/P ratio 40; phosphate buffer pH 6.5", "method": "Particle size and Zeta potential measurement: The particle size and zeta potential of the complexes were measured by dynamic light scattering (Brookhaven Instrument Corp., Holtsville, N.Y., U.S.A.) and using Zetasizer (Malvern Instrument Ltd., Worchestershire, UK), respectively. Briefly, AK27/pDNA and AK32/pDNA complexes were formed in phosphate buffer (pH 6.5) at room temperature at different N/P ratios (i.e. 1, 10, 20, 30 and 40). All the particle size measurements were performed with a light source of 677 nm wavelength and 15° constant angle. The particle size measurement was repeated for 5 runs for each sample, and the data was reported as the effective mean diameter. The zeta potential measurement was repeated for 3 runs per samples, and the data was calculated automatically using the software from the electrophoretic mobility based on the Smoluchowski's formula."}, "[3]": {"assay": "MTT cytotoxicity assay in three cell lines (Example 2)", "type": "cell-based, human, mouse", "conditions": "HEK293, HepG2 and 4T1 cells; blank nanoparticles and pDNA complexes, even at higher N/P ratios", "method": "(§1) Cell culture: Both HEK293 and HepG2 cell lines were cultured in high glucose DMEM medium supplemented with 10% fetal bovine serum (FBS), 100 μg/mL penicillin, and 100 μg/mL streptomycin at 37° C. in a humidified 5% carbon dioxide incubator. 4T1 cell line was also cultured with the same condition as the other cell lines, but in RPMI 1640 growth medium supplemented with 10 mM HEPES.\nCytotoxicity assay: The cytotoxicity of AK27, AK32, AK27/pDNA and AK32/pDNA complexes were all measured using the standard MTT assay protocol. Briefly, HEK293, HepG2 and 4T1 cell lines were seeded onto 96-well plates at 10,000 cells/well, 8,000 cells/well, and 6,000 cells/well seeding density, respectively. Post cell-seeding, the cells were incubated for one day before being used for cytotoxicity assay. For cytotoxicity assay with AK27/pDNA, complexes at N/P ratios of 1, 10, 20, 30, 35, 40, 45 and 50 were prepared in phosphate buffer (pH 6.5) as described earlier. […] After homogenizing the solution, 100 μL of the samples was spectrophotometrically read in a microplate reader (Biorad) at 550 nm and 690 nm wavelength. The relative cell viability was measured as ([Abs550]sample−[Abs690]sample)/([Abs550]control−[Abs690]control)×100%."}, "[4]": {"test_system": "HEK293, HepG2 and 4T1 cell lines", "assay": "In vitro luciferase gene expression, three cell lines (Example 2)", "type": "cell-based, human, mouse", "conditions": "for luciferase gene expression level compared with PEI at N/P 10: general, three cell lines", "method": "as §1\nIn vitro gene expression: HEK293, HepG2, and 4T1 cells were seeded onto 24-well plates at 80,000, 80,000 and 50,000 cells/well, respectively, using the same growth medium and conditions as described previously. After one day, the cells achieved about 70-80% confluence, at which transfection experiments were performed. Briefly, peptide/pDNA complexes were prepared at N/P 1, 10, 20, 30, 35, 40, 45 and 50, and different pH in either sodium acetate buffer (pH 5) or phosphate buffer (pH 6.5 and 7.4). The transfection pH was firstly optimized using HEK293 cell lines and AK27 peptide. […] The total amount of DNA loaded was kept constant at 2.5 μg/well. Cells were allowed to incubate with serum and antibiotics-supplemented growth medium (500 μL/well), onto which the complex solutions (50 μL/well) were added. After four hours following the incubation with the complexes, the medium was then replaced with the fresh one. After 68 hours, the culture medium was removed, and the cells were washed with 0.5 mL of PBS (pH 7.4). 0.2 mL of reporter lysis buffer (Promega, Madison, Wis.) was then added to each well to lyse the cells. The cell suspension was next subjected to two cycles of freezing and thawing, and was centrifuged at 14,000 rpm for 5 minutes. 20 μL of the supernatant of the cell lysate was mixed with 100 μL of luciferase substrate (Promega). The relative light units (RLU) were measured using a luminometer (Lumat LB9507, Berthold, Germany). The luciferase activity was normalized to protein content using the BCA protein assay (Sigma). In all these experiments, both naked DNA-transfected cells and PEI-transfected cells were used as negative and positive controls, respectively. […]"}, "HEK293 cell line": {"test_system": "HEK293 cell line", "assay": "In vitro luciferase gene expression in HEK293 (Example 2)", "type": "cell-based, human", "method": "as §1\n(§2) In vitro gene expression: HEK293, HepG2, and 4T1 cells were seeded onto 24-well plates at 80,000, 80,000 and 50,000 cells/well, respectively, using the same growth medium and conditions as described previously. After one day, the cells achieved about 70-80% confluence, at which transfection experiments were performed. Briefly, peptide/pDNA complexes were prepared at N/P 1, 10, 20, 30, 35, 40, 45 and 50, and different pH in either sodium acetate buffer (pH 5) or phosphate buffer (pH 6.5 and 7.4). The transfection pH was firstly optimized using HEK293 cell lines and AK27 peptide. […] The total amount of DNA loaded was kept constant at 2.5 μg/well. Cells were allowed to incubate with serum and antibiotics-supplemented growth medium (500 μL/well), onto which the complex solutions (50 μL/well) were added. After four hours following the incubation with the complexes, the medium was then replaced with the fresh one. […] The relative light units (RLU) were measured using a luminometer (Lumat LB9507, Berthold, Germany). […]"}, "HepG2 cell line": {"test_system": "HepG2 cell line", "assay": "In vitro luciferase gene expression in HepG2 (Example 2)", "type": "cell-based, human", "conditions": "PEI N/P 10, pH 6.5", "method": "as §1, §2"}, "4T1 cell line": {"test_system": "4T1 cell line", "assay": "In vitro luciferase gene expression in 4T1 (Example 2)", "type": "cell-based, mouse", "conditions": "PEI N/P 10, pH 6.5", "method": "as §1, §2"}},
  "note": "“Also recorded” adds a separate entry of the source. Where no end group is shown, it is not given here.",
  "data": [
    {"sequence": "AAAAAAAAAAAAHHHHHKKKKKKKKKK [AK27, (A)12(H)5(K)10]", "values": [
      {"measurement": "CMC", "setting": "[1]", "result": "approximately 120 mg/L"},
      {"measurement": "N/P ratio for complete retardation of DNA", "setting": "pDNA", "result": 3},
      {"measurement": "highest zeta potential of peptide/pDNA complexes", "setting": "[2]", "result": "approximately 7.8±1.1 mV"},
      {"measurement": "viability at 4 h", "setting": "[3]", "result": "> 80", "unit": "%"},
      {"measurement": "highest luciferase expression level compared with PEI", "setting": "[4]; at N/P ratio of 45, PEI N/P 10", "result": "about one order of magnitude lower"},
      {"measurement": "luciferase gene expression level compared with PEI at N/P 10", "setting": "[4]", "result": "an order of magnitude less"},
      {"measurement": "optimum complexation pH for transfection", "setting": "HEK293 cell line; pH 5, 6.5 and 7.4 tested", "result": "around 6.5"}
    ]},
    {"sequence": "AAAAAAAAAAAAHHHHHKKKKKKKKKKKKKKK [AK32, (A)12(H)5(K)15]", "values": [
      {"measurement": "N/P ratio for complete retardation of DNA", "setting": "pDNA", "result": 2},
      {"measurement": "highest zeta potential of peptide/pDNA complexes", "setting": "[2]", "result": "~18.2±0.5", "unit": "mV"},
      {"measurement": "viability at 4 h", "setting": "[3]", "result": "> 80", "unit": "%"},
      {"measurement": "luciferase gene expression level compared with PEI at N/P 10", "setting": "[4]", "result": "almost comparable"},
      {"measurement": "highest luciferase expression level compared with PEI", "setting": "HEK293 cell line; PEI N/P 10, pH 6.5", "result": "comparable to that provided by PEI; also recorded: comparable to that yielded by PEI"},
      {"measurement": "highest luciferase expression level compared with PEI", "setting": "HepG2 cell line", "result": "comparable to that provided by PEI; also recorded: comparable to that yielded by PEI"},
      {"measurement": "highest luciferase expression level compared with PEI", "setting": "4T1 cell line", "result": "less than an order of magnitude lower"}
    ]}
  ]
}
